Assay results: the NIST ThermoML archive (doi:10.1021/je060179e)

Experiment: xn = mol fraction of the nth substance listed
Settings: for mass density: 101 kPa, Liquid

CCCCO [butan-1-ol] + CCCCCCC
Settings | mass density [kg/m3] | surface tension liquid-gas [mN/m]
288.15 K, x2 = 0.0498 | – | 24.31
288.15 K, x2 = 0.051 | 803.35 | –
288.15 K, x2 = 0.0998 | 794.33 | –
288.15 K, x2 = 0.1007 | – | 23.81
288.15 K, x2 = 0.2005 | – | 22.99
288.15 K, x2 = 0.2067 | 776.12 | –
288.15 K, x2 = 0.3043 | – | 22.37
288.15 K, x2 = 0.3087 | 760.61 | –
288.15 K, x2 = 0.4058 | – | 21.88
288.15 K, x2 = 0.4059 | 747.14 | –
288.15 K, x2 = 0.5052 | 734.63 | –
288.15 K, x2 = 0.5054 | – | 21.56
288.15 K, x2 = 0.5986 | 724.01 | –
288.15 K, x2 = 0.599 | – | 21.38
288.15 K, x2 = 0.7072 | – | 21.17
288.15 K, x2 = 0.7259 | 710.89 | –
288.15 K, x2 = 0.8008 | – | 21.03
288.15 K, x2 = 0.8066 | 703.39 | –
288.15 K, x2 = 0.8982 | – | 20.94
288.15 K, x2 = 0.908 | 694.8 | –
288.15 K, x2 = 0.9523 | 691.35 | –
288.15 K, x2 = 0.9532 | – | 20.87
293.15 K, x2 = 0.0503 | – | 23.76
293.15 K, x2 = 0.051 | 799.52 | –
293.15 K, x2 = 0.0998 | 790.46 | –
293.15 K, x2 = 0.1008 | – | 23.26
293.15 K, x2 = 0.201 | – | 22.44
293.15 K, x2 = 0.2067 | 772.16 | –
293.15 K, x2 = 0.2986 | – | 21.85
293.15 K, x2 = 0.3087 | 756.57 | –
293.15 K, x2 = 0.4002 | – | 21.37
293.15 K, x2 = 0.4059 | 743 | –
293.15 K, x2 = 0.5009 | – | 21.01
293.15 K, x2 = 0.5052 | 730.46 | –
293.15 K, x2 = 0.5986 | 719.8 | –
293.15 K, x2 = 0.5998 | – | 20.79
293.15 K, x2 = 0.7034 | – | 20.62
293.15 K, x2 = 0.7259 | 706.65 | –
293.15 K, x2 = 0.7971 | – | 20.51
293.15 K, x2 = 0.8066 | 699.15 | –
293.15 K, x2 = 0.902 | – | 20.37
293.15 K, x2 = 0.908 | 690.55 | –
293.15 K, x2 = 0.9511 | – | 20.33
293.15 K, x2 = 0.9523 | 687.11 | –
298.15 K, x2 = 0.051 | 795.66 | –
298.15 K, x2 = 0.056 | – | 23.17
298.15 K, x2 = 0.0937 | – | 22.75
298.15 K, x2 = 0.0998 | 786.55 | –
298.15 K, x2 = 0.2067 | 768.15 | –
298.15 K, x2 = 0.2085 | – | 21.94
298.15 K, x2 = 0.302 | – | 21.35
298.15 K, x2 = 0.3087 | 752.48 | –
298.15 K, x2 = 0.3975 | – | 20.86
298.15 K, x2 = 0.4059 | 738.85 | –
298.15 K, x2 = 0.5052 | 726.25 | –
298.15 K, x2 = 0.5054 | – | 20.44
298.15 K, x2 = 0.5986 | 715.56 | –
298.15 K, x2 = 0.6086 | – | 20.17
298.15 K, x2 = 0.7259 | 702.38 | –
298.15 K, x2 = 0.806 | – | 19.99
298.15 K, x2 = 0.8066 | 694.86 | –
298.15 K, x2 = 0.908 | 686.27 | –
298.15 K, x2 = 0.9082 | – | 19.85
298.15 K, x2 = 0.9502 | – | 19.81
298.15 K, x2 = 0.9523 | 682.83 | –
303.15 K, x2 = 0.0491 | – | 22.62
303.15 K, x2 = 0.051 | 791.77 | –
303.15 K, x2 = 0.0997 | – | 22.16
303.15 K, x2 = 0.0998 | 782.61 | –
303.15 K, x2 = 0.2052 | – | 21.41
303.15 K, x2 = 0.2067 | 764.11 | –
303.15 K, x2 = 0.3051 | – | 20.81
303.15 K, x2 = 0.3087 | 748.35 | –
303.15 K, x2 = 0.4003 | – | 20.3
303.15 K, x2 = 0.4059 | 734.65 | –
303.15 K, x2 = 0.504 | – | 19.92
303.15 K, x2 = 0.5052 | 722 | –
303.15 K, x2 = 0.5966 | – | 19.72
303.15 K, x2 = 0.5986 | 711.28 | –
303.15 K, x2 = 0.7052 | – | 19.48
303.15 K, x2 = 0.7259 | 698.07 | –
303.15 K, x2 = 0.8014 | – | 19.39
303.15 K, x2 = 0.8066 | 690.54 | –
303.15 K, x2 = 0.9024 | – | 19.3
303.15 K, x2 = 0.908 | 681.95 | –
303.15 K, x2 = 0.9507 | – | 19.27
303.15 K, x2 = 0.9523 | 678.52 | –
308.15 K, x2 = 0.0507 | – | 22.35
308.15 K, x2 = 0.051 | 787.85 | –
308.15 K, x2 = 0.0998 | 778.63 | –
308.15 K, x2 = 0.1017 | – | 21.89
308.15 K, x2 = 0.2054 | – | 20.98
308.15 K, x2 = 0.2067 | 760.04 | –
308.15 K, x2 = 0.3025 | – | 20.33
308.15 K, x2 = 0.3087 | 744.18 | –
308.15 K, x2 = 0.4017 | – | 19.87
308.15 K, x2 = 0.4059 | 730.42 | –
308.15 K, x2 = 0.5052 | 717.71 | 19.53
308.15 K, x2 = 0.5986 | 706.95 | –
308.15 K, x2 = 0.6007 | – | 19.28
308.15 K, x2 = 0.7259 | 693.71 | –
308.15 K, x2 = 0.7306 | – | 19.2
308.15 K, x2 = 0.8066 | 686.18 | –
308.15 K, x2 = 0.8079 | – | 19.1
308.15 K, x2 = 0.908 | 677.61 | –
308.15 K, x2 = 0.9086 | – | 18.99
308.15 K, x2 = 0.9523 | 674.17 | –
308.15 K, x2 = 0.9532 | – | 18.9
